Test results from US7115753B2, “Triaryl cation antibiotics from environmental DNA” (Wisconsin Alumni Research Foundation, priority 2000, dated 2006).
Where two headings read alike, the source gives them in different places. Marks after values point to notes of the source that are not given here.

Legend:
Erwinia herbicola IRQ = test: Zone of inhibition assay; assay type: cell-based; conditions: 10 μl drop of 250 μg/ml in DMSO
Escherichia coli HS997 = test: Zone of inhibition assay; assay type: cell-based; conditions: 10 μl drop of 250 μg/ml in DMSO
[1] = tested on: Pseudomonas aeruginosa 9020; test: Zone of inhibition assay; assay type: cell-based; parameters: key: (+) 2 to 13 mm zone; (+/−) 1 mm zone; (−) no zone of inhibition; conditions: 10 μl drop of 250 μg/ml in DMSO
[2] = tested on: Salmonella typhimurium LT2; test: Zone of inhibition assay; assay type: cell-based; conditions: 10 μl drop of 250 μg/ml in DMSO
[3] = tested on: B. cereus var. mycoides 1003; assay type: cell-based, Bacillus cereus var. mycoides; conditions: 10 μl drop of 250 μg/ml in DMSO
[4] = tested on: Enterococcus faecalis 4025; test: Zone of inhibition assay; assay type: cell-based; parameters: key: (+) 2 to 13 mm zone; (+/−) 1 mm zone; (−) no zone of inhibition; conditions: 10 μl drop of 250 μg/ml in DMSO
[5] = tested on: Staphylococcus aureus 3001; test: Zone of inhibition assay; assay type: cell-based; conditions: 10 μl drop of 250 μg/ml in DMSO
[6] = tested on: Streptococcus pyogenes 8P01; test: Zone of inhibition assay; assay type: cell-based; conditions: 10 μl drop of 250 μg/ml in DMSO
[7] = tested on: Streptomyces griseus 6501; test: Zone of inhibition assay; assay type: cell-based; conditions: 10 μl drop of 250 μg/ml in DMSO
[8] = tested on: Candida guilliermondii Y001; test: Zone of inhibition assay; assay type: cell-based; conditions: 10 μl drop of 250 μg/ml in DMSO
[9] = tested on: Fusarium solani (f. sp. glycine) 90.1; test: Zone of inhibition assay (fungal plug on plate); assay type: cell-based; parameters: key: (+) 2 to 13 mm zone; (+/−) 1 mm zone; (−) no zone of inhibition; conditions: DMSO-dissolved compound on plate, 23° C., 7 days
Experimental: (§1) Pythium ultimum (1033) and Fusarium solani f sp. glycine (90.1) were grown on ¼- strength potato dextrose agar (29) at 23° C. Plugs were cut from the fungal lawn using a #5 cork borer and placed onto the center of a fresh plate containing the DMSO-dissolved compounds. The plates were incubated 7 days, or until the organism covered the plate, at 23° C., in the dark.

Pythium ultimum 1033 = test: Zone of inhibition assay (fungal plug on plate); assay type: cell-based; parameters: key: (+) 2 to 13 mm zone; (+/−) 1 mm zone; (−) no zone of inhibition; conditions: DMSO-dissolved compound on plate, 23° C., 7 days
Experimental: as §1

Bacillus subtilis = test: Minimum inhibitory concentration (MIC) in broth culture; assay type: cell-based; conditions: synthetic compound
Experimental: (§2) Overnight cultures were prepared as for the plate inhibition assays. Culture optical densities (O.D.) were normalized to 0.15 (150 μl path length) by performing 1:1 serial dilutions (150 μl transfer into 150 μl diluent) in a 96 well microtiter plate. Inoculum cell concentrations (colony forming units/ml) were subsequently determined by performing 1:5 serial dilution series (50 μl transfer into 200 μl diluent) in a second microtiter plate. Three dilutions were plated ([…]) by mixing 50 μl of a given dilution into 20 ml of cooled BHI/YE medium and quickly pouring into a petri plate. Test compounds, both natural and synthetic, were dissolved in DMSO (2.0 mg/ml) and diluted into BHI/YE medium to a concentration of 106 μg/ml (5.35% v/v DMSO). Samples of each of the test compounds (150 μl each) were added to 3 separate wells, each containing 150 μl of BHI/YE medium (no DMSO). […] Three plates were prepared for each test organism (n=3 […]=9 per compound, per organism). Additional wells were included in duplicate on each plate for color subtraction, +/-DMSO, and minus compound controls (n=2 […]=6 per control, per organism). Ten μl of normalized inoculum was added per well. Absorbance at 590 nm was read using a […] Victor® Microtiter plate reader; double circular mixing was performed for 10 seconds prior to reading at times 0, 30 and 60 hours. The plates were statically incubated at 28° C. when not being read. Absorbance values were imported into Microsoft Excel® and analyzed graphically.

Erwinia herbicola = test: as above; assay type: cell-based; conditions: synthetic compound
Experimental: as §2

Salmonella typhimurium = test: as above; assay type: cell-based; conditions: synthetic compound
Experimental: as §2

Staphylococcus aureus = test: as above; assay type: cell-based
Experimental: as §2

Streptococcus pyogenes = test: as above; assay type: cell-based; conditions: synthetic compound
Experimental: as §2

c1ccc2c([C+](c3c[nH]c4ccccc34)c3c[nH]c4ccccc34)c[nH]c2c1 [Turbomycin A, turbomycin A]
Antibiotic activity (zone of inhibition) (Erwinia herbicola IRQ; Natural compound): + ((+) 2 to 13 mm zone)
Antibiotic activity (zone of inhibition) (Erwinia herbicola IRQ; Synthetic compound): +^a ((+) 2 to 13 mm zone)
Antibiotic activity (zone of inhibition) (Escherichia coli HS997; Natural compound): +/− ((+/−) 1 mm zone)
Antibiotic activity (zone of inhibition) (Escherichia coli HS997; Synthetic compound): +/−^b ((+/−) 1 mm zone)
Antibiotic activity (zone of inhibition) ([1]; Natural compound): −
Antibiotic activity (zone of inhibition) ([1]; Synthetic compound): −^c
Antibiotic activity (zone of inhibition) ([2]; Natural compound): + ((+) 2 to 13 mm zone)
Antibiotic activity (zone of inhibition) ([2]; Synthetic compound): + ((+) 2 to 13 mm zone)
Antibiotic activity (zone of inhibition) ([3]; Natural compound): + ((+) 2 to 13 mm zone)
Antibiotic activity (zone of inhibition) ([3]; Synthetic compound): + ((+) 2 to 13 mm zone)
Antibiotic activity (zone of inhibition) ([4]; Natural compound): −
Antibiotic activity (zone of inhibition) ([4]; Synthetic compound): −
Antibiotic activity (zone of inhibition) ([5]; Natural compound): + ((+) 2 to 13 mm zone)
Antibiotic activity (zone of inhibition) ([5]; Synthetic compound): + ((+) 2 to 13 mm zone)
Antibiotic activity (zone of inhibition) ([6]; Natural compound): + ((+) 2 to 13 mm zone)
Antibiotic activity (zone of inhibition) ([6]; Synthetic compound): + ((+) 2 to 13 mm zone)
Antibiotic activity (zone of inhibition) ([7]; Natural compound): + ((+) 2 to 13 mm zone)
Antibiotic activity (zone of inhibition) ([7]; Synthetic compound): + ((+) 2 to 13 mm zone)
Antibiotic activity (zone of inhibition) ([8]; Natural compound): +/− ((+/−) 1 mm zone)
Antibiotic activity (zone of inhibition) ([8]; Synthetic compound): +/− ((+/−) 1 mm zone)
Antibiotic activity (zone of inhibition) ([9]; Natural compound): −
Antibiotic activity (zone of inhibition) ([9]; Synthetic compound): −
Antibiotic activity (zone of inhibition) (Pythium ultimum 1033; Natural compound): −
Antibiotic activity (zone of inhibition) (Pythium ultimum 1033; Synthetic compound): −
minimum inhibitory concentration (MIC) (Bacillus subtilis): 6.2 µg/mL
minimum inhibitory concentration (MIC) (Erwinia herbicola): 6.2 µg/mL
minimum inhibitory concentration (MIC) (Salmonella typhimurium): 12.5 µg/mL
MIC of natural product compared with synthetic compound (Staphylococcus aureus; natural product, same experiment as synthetic compound, S. aureus): same MIC
minimum inhibitory concentration (MIC) (Staphylococcus aureus; synthetic compound, broth culture, Staphylococcus aureus): 6.2 µg/mL
minimum inhibitory concentration (MIC) (Streptococcus pyogenes): 6.2 µg/mL

c1ccc([C+](c2c[nH]c3ccccc23)c2c[nH]c3ccccc23)cc1 [Turbomycin B, turbomycin B]
Antibiotic activity (zone of inhibition) (Erwinia herbicola IRQ; Natural compound): + ((+) 2 to 13 mm zone)
Antibiotic activity (zone of inhibition) (Erwinia herbicola IRQ; Synthetic compound): + ((+) 2 to 13 mm zone)
Antibiotic activity (zone of inhibition) (Escherichia coli HS997; Natural compound): +/− ((+/−) 1 mm zone)
Antibiotic activity (zone of inhibition) (Escherichia coli HS997; Synthetic compound): +/− ((+/−) 1 mm zone)
Antibiotic activity (zone of inhibition) ([1]; Natural compound): −
Antibiotic activity (zone of inhibition) ([1]; Synthetic compound): −
Antibiotic activity (zone of inhibition) ([2]; Natural compound): + ((+) 2 to 13 mm zone)
Antibiotic activity (zone of inhibition) ([2]; Synthetic compound): + ((+) 2 to 13 mm zone)
Antibiotic activity (zone of inhibition) ([3]; Natural compound): + ((+) 2 to 13 mm zone)
Antibiotic activity (zone of inhibition) ([3]; Synthetic compound): + ((+) 2 to 13 mm zone)
Antibiotic activity (zone of inhibition) ([4]; Natural compound): −
Antibiotic activity (zone of inhibition) ([4]; Synthetic compound): −
Antibiotic activity (zone of inhibition) ([5]; Natural compound): + ((+) 2 to 13 mm zone)
Antibiotic activity (zone of inhibition) ([5]; Synthetic compound): + ((+) 2 to 13 mm zone)
Antibiotic activity (zone of inhibition) ([6]; Natural compound): + ((+) 2 to 13 mm zone)
Antibiotic activity (zone of inhibition) ([6]; Synthetic compound): + ((+) 2 to 13 mm zone)
Antibiotic activity (zone of inhibition) ([7]; Natural compound): + ((+) 2 to 13 mm zone)
Antibiotic activity (zone of inhibition) ([7]; Synthetic compound): + ((+) 2 to 13 mm zone)
Antibiotic activity (zone of inhibition) ([8]; Natural compound): +/− ((+/−) 1 mm zone)
Antibiotic activity (zone of inhibition) ([8]; Synthetic compound): +/− ((+/−) 1 mm zone)
Antibiotic activity (zone of inhibition) ([9]; Natural compound): −
Antibiotic activity (zone of inhibition) ([9]; Synthetic compound): −
Antibiotic activity (zone of inhibition) (Pythium ultimum 1033; Natural compound): −
Antibiotic activity (zone of inhibition) (Pythium ultimum 1033; Synthetic compound): −
